Data taken from patent publication US8969375B2, “CDK9 kinase inhibitors” (AbbVie Inc., priority 2013, dated 2015).
pEC50, pIC50: −log10 of the molar value.

How the values were obtained:
H929 cells = assay: Cell viability assay (Cell TiterGlo), H929 cells; assay type: cell-based, human; settings: Homo sapiens, NCI-H929, 24 hours
Protocol: Cell viability assays were performed using A431 or H929 cells. A431 cells were seeded in 96-well plates at 10,000 cells/well, and after overnight incubation, treated with compounds at 2-times the final concentration to result in a dose response of 3-fold dilutions from 10 μM to 0.0005 μM (50 μL/well, 0.1% final DMSO concentration). H929 cells were seeded in 96-well plates at 10,000 cells/well and treated immediately with compounds as described above. After 24 hours at 37° C., cell viability was measured using Cell TiterGlo reagent (Promega) with a luminescence reader. Alternately, cell viability assays were performed in 384-well format. A431 cells were seeded in 384-well plates at 2500 cells/well and, after overnight incubation, treated with compounds in a dose response of 3-fold dilutions from 10 μM to 0.0005 μM ([…], 0.1% final DMSO concentration). For the H929 viability assay, […] of the compounds was dispensed into 384-well plates in a dose response as described above and cells were immediately seeded in 384-well plates at 2500 cells/well. After 24 hours at […], cell viability was measured using Cell TiterGlo reagent (Promega) with a luminescence reader.

CDK9/Cyclin T1 = molecular target: T1, CDK9/Cyclin T1 (Homo sapiens, UniProt P50750); assay: CDK9 enzyme activity, LANCE ULight TR-FRET kinase assay; assay type: biochemical; settings: 1000 μM ATP, 4 nM CDK9/Cyclin T1, 30 minutes
T1 construct: purchased Carna Biosciences 04-110
Protocol: CDK9 enzyme activities were measured using LANCE ULight TR-FRET kinase assay reagents (PerkinElmer, Waltham, Mass.). Compounds were directly added in 100% DMSO to white low volume assay plates (Perkin Elmer Proxiplate 6008289) using a Labcyte Echo acoustic dispenser. Assay reagents in serine/threonine kinase assay buffer containing 20 mM HEPES, 10 mM MgCl2, 100 mM Na3VO4, and 0.0075% Triton X-100. were added for final reaction mixture concentrations of 1000 μM ATP, 100 nM U-light MBP peptide (Perkin Elmer TRF0109M) and reaction initiated with 4 nM CDK9/Cyclin T1 (Carna Biosciences 04-110). The kinase reaction was carried out for 30 minutes before addition of stopping buffer to a final of 20 mM EDTA and 0.5 nM of LANCE Ultra Europium anti-phospho-MBP antibody (PerkinElmer TRF0201M) in LANCE detection buffer (PerkinElmer CR97-100). The reaction was equilibrated for 1 hour and the signal read in the Perkin Elmer Envision in TR-FRET mode (excitation at 320 nm and emission at 615/665 nm).

T1 sequence (P50750 whole entry): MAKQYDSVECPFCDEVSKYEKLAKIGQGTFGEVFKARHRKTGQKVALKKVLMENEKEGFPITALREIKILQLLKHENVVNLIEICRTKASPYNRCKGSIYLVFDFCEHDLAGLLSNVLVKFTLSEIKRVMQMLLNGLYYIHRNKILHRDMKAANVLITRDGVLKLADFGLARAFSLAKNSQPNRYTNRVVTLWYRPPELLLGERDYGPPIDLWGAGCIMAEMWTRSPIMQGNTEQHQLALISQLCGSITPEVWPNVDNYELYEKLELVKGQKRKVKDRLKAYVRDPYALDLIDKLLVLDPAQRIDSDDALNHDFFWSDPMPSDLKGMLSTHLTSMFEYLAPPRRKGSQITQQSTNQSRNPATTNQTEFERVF
T1 sequence (O60563 whole entry partner): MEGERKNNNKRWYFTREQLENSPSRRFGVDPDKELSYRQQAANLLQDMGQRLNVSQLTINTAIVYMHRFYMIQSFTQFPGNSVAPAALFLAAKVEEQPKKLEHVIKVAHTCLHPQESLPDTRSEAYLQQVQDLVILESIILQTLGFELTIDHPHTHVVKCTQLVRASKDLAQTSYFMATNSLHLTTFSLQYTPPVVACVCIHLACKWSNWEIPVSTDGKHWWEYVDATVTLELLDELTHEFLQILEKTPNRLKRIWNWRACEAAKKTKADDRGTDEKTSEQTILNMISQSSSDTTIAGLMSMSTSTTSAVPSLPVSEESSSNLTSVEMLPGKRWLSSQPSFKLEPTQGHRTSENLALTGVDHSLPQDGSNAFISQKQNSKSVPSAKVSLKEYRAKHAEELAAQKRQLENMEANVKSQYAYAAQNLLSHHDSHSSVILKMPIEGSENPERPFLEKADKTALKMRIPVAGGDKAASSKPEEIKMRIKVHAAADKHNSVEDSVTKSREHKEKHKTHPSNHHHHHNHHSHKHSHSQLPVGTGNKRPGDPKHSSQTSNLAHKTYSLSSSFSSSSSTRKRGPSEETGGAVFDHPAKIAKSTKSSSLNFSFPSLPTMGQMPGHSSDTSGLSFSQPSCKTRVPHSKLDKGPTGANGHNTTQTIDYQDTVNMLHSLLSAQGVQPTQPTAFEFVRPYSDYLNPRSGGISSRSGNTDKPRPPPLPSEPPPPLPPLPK

Structure (SMILES)	pEC50 (H929 cells)	pIC50 (CDK9/Cyclin T1)
CS(=O)(=O)N1CCC(c2cc3c(-c4ccc5ncn(CC6CCOCC6)c5c4)ccnc3[nH]2)CC1 [Example 6, 6-{2-[1-(methylsulfonyl)piperidin-4-yl]-1H-pyrrolo[2,3-b]pyridin-4-yl}-1-(tetrahydro-2H-pyran-4-ylmethyl)-1H-benzimidazole]	6.89	7.42
c1cc(-c2ccc3ncn(CC4CCOCC4)c3n2)c2cc(C3CCNCC3)[nH]c2n1 [Example 7, 5-[2-(piperidin-4-yl)-1H-pyrrolo[2,3-b]pyridin-4-yl]-3-(tetrahydro-2H-pyran-4-ylmethyl)-3H-imidazo[4,5-b]pyridine]	6.30	7.16
CS(=O)(=O)N1CCC(c2cc3c(-c4ccc5c(C#N)cn(Cc6cccc(F)c6)c5c4)ccnc3[nH]2)CC1 [Example 11, 1-(3-fluorobenzyl)-6-{2-[1-(methylsulfonyl)piperidin-4-yl]-1H-pyrrolo[2,3-b]pyridin-4-yl}-1H-indole-3-carbonitrile]	6.75	6.96
CNC(=O)N1CCC(c2cc3c(-c4ccc5ncn(Cc6cncc(F)c6)c5c4)ccnc3[nH]2)CC1 [Example 16, 4-(4-{1-[(5-fluoropyridin-3-yl)methyl]-1H-benzimidazol-6-yl}-1H-pyrrolo[2,3-b]pyridin-2-yl)-N-methylpiperidine-1-carboxamide]	6.74	7.03
OCC(O)CN1CCC(c2cc3c(-c4ccc5ncn(Cc6cncc(F)c6)c5c4)ccnc3[nH]2)CC1 (centres unmarked) [Example 17, 3-[4-(4-{1-[(5-fluoropyridin-3-yl)methyl]-1H-benzimidazol-6-yl}-1H-pyrrolo[2,3-b]pyridin-2-yl)piperidin-1-yl]propane-1,2-diol]	6.92	7.18
Fc1cc2ncn(CC3CCOCC3)c2cc1-c1ccnc2[nH]c(C3CCNCC3)cc12 [Example 18, 5-fluoro-6-[2-(piperidin-4-yl)-1H-pyrrolo[2,3-b]pyridin-4-yl]-1-(tetrahydro-2H-pyran-4-ylmethyl)-1H-benzimidazole]	6.07	6.92
OCC(O)CN1CCC(c2cc3c(-c4cc5c(cc4F)ncn5CC4CCOCC4)ccnc3[nH]2)CC1 (centres unmarked) [Example 19, 3-(4-{4-[5-fluoro-1-(tetrahydro-2H-pyran-4-ylmethyl)-1H-benzimidazol-6-yl}-1H-pyrrolo[2,3-b]pyridin-2-yl]piperidin-1-yl)propane-1,2-diol]	5.95	7.01
CNC(=O)N1CCC(c2cc3c(-c4cc5c(cc4F)ncn5CC4CCOCC4)ccnc3[nH]2)CC1 [Example 20, 4-{4-[5-fluoro-1-(tetrahydro-2H-pyran-4-ylmethyl)-1H-benzimidazol-6-yl]-1H-pyrrolo[2,3-b]pyridin-2-yl}-N-methylpiperidine-1-carboxamide]	5.71	6.80
O=C(CO)N1CCC(c2cc3c(-c4cc5c(cc4F)ncn5CC4CCOCC4)ccnc3[nH]2)CC1 [Example 21, 1-(4-{4-[5-fluoro-1-(tetrahydro-2H-pyran-4-ylmethyl)-1H-benzimidazol-6-yl}-1H-pyrrolo[2,3-b]pyridin-2-yl]piperidin-1-yl)-2-hydroxyethanone]	5.73	7.00
N#Cc1cn(Cc2ccccc2)c2cc(-c3ncnc4[nH]c(C5=CCNCC5)cc34)ccc12 [Example 22, 1-benzyl-6-[6-(1,2,3,6-tetrahydropyridin-4-yl)-7H-pyrrolo[2,3-d]pyrimidin-4-yl]-1H-indole-3-carbonitrile]	7.00	7.80
CS(=O)(=O)N1CCC(c2cc3c(-c4cc5c(cc4F)ncn5CC4CCOCC4)ccnc3[nH]2)CC1 [Example 23, 5-fluoro-6-{2-[1-(methylsulfonyl)piperidin-4-yl]-1H-pyrrolo[2,3-b]pyridin-4-yl}-1-(tetrahydro-2H-pyran-4-ylmethyl)-1H-benzimidazole]	6.26	7.26
Clc1cc2ncn(CC3CCOCC3)c2cc1-c1ccnc2[nH]c(C3CCNCC3)cc12 [Example 27, 5-chloro-6-[2-(piperidin-4-yl)-1H-pyrrolo[2,3-b]pyridin-4-yl]-1-(tetrahydro-2H-pyran-4-ylmethyl)-1H-benzimidazole]	5.15	7.28
N#Cc1cn(CC2CCOCC2)c2cc(-c3ccnc4[nH]c(C5CCNCC5)cc34)cnc12 [Example 28, 6-[2-(piperidin-4-yl)-1H-pyrrolo[2,3-b]pyridin-4-yl]-1-(tetrahydro-2H-pyran-4-ylmethyl)-1H-pyrrolo[3,2-b]pyridine-3-carbonitrile]	< 5.00	6.74
c1cc(-c2cnc3ccn(CC4CCOCC4)c3c2)c2cc(C3CCNCC3)[nH]c2n1 [Example 30, 6-{2-(piperidin-4-yl)-1H-pyrrolo[2,3-b]pyridin-4-yl}-1-(tetrahydro-2H-pyran-4-ylmethyl)-1H-pyrrolo[3,2-b]pyridine]	5.20	7.07
N#Cc1cn(Cc2ccccc2)c2cc(-c3ncnc4[nH]c(C5=CCN(CC(O)CO)CC5)cc34)ccc12 (centres unmarked) [Example 31, 1-benzyl-6-{6-[1-(2,3-dihydroxypropyl)-1,2,3,6-tetrahydropyridin-4-yl]-7H-pyrrolo[2,3-d]pyrimidin-4-yl}-1H-indole-3-carbonitrile]	–	7.52
Fc1cccc(CCn2nnc3ccc(-c4ccnc5[nH]c(C6CCNCC6)cc45)cc32)c1 [Example 32, 1-[2-(3-fluorophenyl)ethyl]-6-{2-(piperidin-4-yl)-1H-pyrrolo[2,3-b]pyridin-4-yl}-1H-benzotriazole]	6.05	7.29
Fc1cccc(CCn2nnc3ccc(-c4ccnc5[nH]c(C6CCNCC6)c(Cl)c45)cc32)c1 [Example 33, 6-[3-chloro-2-(piperidin-4-yl)-1H-pyrrolo[2,3-b]pyridin-4-yl]-1-[2-(3-fluorophenyl)ethyl]-1H-benzotriazole]	5.96	7.74
CS(=O)(=O)N1CCC(c2cc3c(-c4cnc5ccn(Cc6cccc(F)c6)c5c4)ccnc3[nH]2)CC1 [Example 34, 1-(3-fluorobenzyl)-6-{2-[1-(methylsulfonyl)piperidin-4-yl]-1H-pyrrolo[2,3-b]pyridin-4-yl}-1H-pyrrolo[3,2-b]pyridine]	6.89	7.77
N#Cc1cn(Cc2cccc(F)c2)c2nc(-c3ccnc4[nH]c(C5CCNCC5)cc34)ccc12 [Example 35, 1′-(3-fluorobenzyl)-2-(piperidin-4-yl)-1H,1′H-4,6′-bipyrrolo[2,3-b]pyridine-3′-carbonitrile]	6.70	7.89
C1=C(c2cc3c(-c4ccc5nnn(CC6CCOCC6)c5c4)ccnc3[nH]2)CCNC1 [Example 36, 1-(tetrahydro-2H-pyran-4-ylmethyl)-6-[2-(1,2,3,6-tetrahydropyridin-4-yl)-1H-pyrrolo[2,3-b]pyridin-4-yl]-1H-benzotriazole]	6.35	7.23
Fc1cncc(Cn2ccc3ncc(-c4ccnc5[nH]c(C6CCNCC6)cc45)cc32)c1 [Example 37, 1-[(5-fluoropyridin-3-yl)methyl]-6-[2-(piperidin-4-yl)-1H-pyrrolo[2,3-b]pyridin-4-yl]-1H-pyrrolo[3,2-b]pyridine]	6.77	7.59
